Measured values as given in patent publication US20060069132A1, “Azolecarboxamide herbicides” (priority 2004, published 2006).

Tests used:
barnyardgrass [1] = test: Test A pre-/postemergence herbicide test; type: in vivo, Echinochloa crus-galli
How it was run: (§1)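 Seeds sown in sandy loam received a preemergence directed soil spray of compound in non-phytotoxic solvent with surfactant; postemergence plants (2–10 cm, one- to two-leaf stage) were sprayed to runoff at the same time. After ~10 days in greenhouse, injury was rated visually versus untreated controls (0 = no effect, 100 = complete control).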

large crabgrass [2] = test: Test A pre-/postemergence herbicide test; type: in vivo, Digitaria sanguinalis
How it was run: as §1

giant foxtail [3] = test: Test A pre-/postemergence herbicide test; type: in vivo, Setaria faberi
How it was run: as §1

morningglory [4] = test: Test A pre-/postemergence herbicide test; type: in vivo, Ipomoea spp.
How it was run: as §1

redroot pigweed = test: Test A pre-/postemergence herbicide test; type: in vivo, Amaranthus retroflexus
How it was run: as §1

velvetleaf [5] = test: Test A pre-/postemergence herbicide test; type: in vivo, Abutilon theophrasti
How it was run: as §1

barnyardgrass [6] = test: Test B pre-/postemergence herbicide test; type: in vivo, Echinochloa crus-galli; settings: for Barnyardgrass plant response rating: postemergence, visual rating, scale 0 (no effect) to 100 (complete control)
How it was run: (§2)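 Greenhouse pot assay with simultaneous preemergence (treated seed) and postemergence (2–18 cm seedlings) applications of surfactant-containing, non-phytotoxic solvent formulations. Response scored visually 13–15 days later on a 0–100 scale, 100 meaning complete control.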

Surinam grass = test: Test B pre-/postemergence herbicide test; type: in vivo, Urochloa decumbens; settings: for Surinam Grass plant response rating: postemergence, visual rating, scale 0 (no effect) to 100 (complete control)
How it was run: as §2

cocklebur = test: Test B pre-/postemergence herbicide test; type: in vivo, Xanthium strumarium; settings: for Cocklebur plant response rating: postemergence, visual rating, scale 0 (no effect) to 100 (complete control)
How it was run: as §2

corn = test: Test B pre-/postemergence herbicide test; type: in vivo, Zea mays; settings: for Corn plant response rating: postemergence, visual rating, scale 0 (no effect) to 100 (complete control)
How it was run: as §2

large crabgrass [7] = test: Test B pre-/postemergence herbicide test; type: in vivo, Digitaria sanguinalis; settings: for Crabgrass, Large plant response rating: postemergence, visual rating, scale 0 (no effect) to 100 (complete control)
How it was run: as §2

giant foxtail [8] = test: Test B pre-/postemergence herbicide test; type: in vivo, Setaria faberi; settings: for Foxtail, Giant plant response rating: postemergence, visual rating, scale 0 (no effect) to 100 (complete control)
How it was run: as §2

lambsquarters = test: Test B pre-/postemergence herbicide test; type: in vivo, Chenopodium album; settings: for Lambsquarters plant response rating: postemergence, visual rating, scale 0 (no effect) to 100 (complete control)
How it was run: as §2

morningglory [9] = test: Test B pre-/postemergence herbicide test; type: in vivo, Ipomoea coccinea; settings: for Morningglory plant response rating: postemergence, visual rating, scale 0 (no effect) to 100 (complete control)
How it was run: as §2

pigweed = test: Test B pre-/postemergence herbicide test; type: in vivo, Amaranthus retroflexus; settings: for Pigweed plant response rating: postemergence, visual rating, scale 0 (no effect) to 100 (complete control)
How it was run: as §2

rice [10] = test: Test B pre-/postemergence herbicide test; type: in vivo, Oryza sativa; settings: preemergence
How it was run: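 Species tested were Echinochloa crus-galli, Ipomoea coccinea, Xanthium strumarium and Oryza sativa, treated both before emergence and at the 1- to 4-leaf stage; rice and barnyardgrass were also tested under flooding at 2 leaves. Greenhouse incubation lasted 13–15 days before visual 0–100 scoring.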

velvetleaf [11] = test: Test B pre-/postemergence herbicide test; type: in vivo, Abutilon theophrasti; settings: for Velvetleaf plant response rating: postemergence, visual rating, scale 0 (no effect) to 100 (complete control)
How it was run: as §2

blackgrass = test: Test B postemergence herbicide test; type: in vivo, Alopecurus myosuroides; settings: postemergence, visual rating, scale 0 (no effect) to 100 (complete control)
How it was run: (§3)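 Greenhouse test; postemergence application to plants at 1–4 leaves (2–18 cm); paddy species at 2 leaves; evaluated visually vs controls at 13–15 days; scale 0–100 (100 = complete control).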

wheat = test: Test B postemergence herbicide test; type: in vivo, Triticum aestivum; parameters: key to Wheat plant response rating: 0 = no effect, 100 = complete control; settings: postemergence, visual rating, scale 0 (no effect) to 100 (complete control)
How it was run: (§4)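 Read-out: visual comparison with controls, scored 0 to 100, where 100 means complete control and 0 no effect. Formulated chemicals were applied postemergence to plants 2–18 cm tall (1- to 4-leaf), or to flooded-paddy plants at the 2-leaf stage, then held 13 to 15 days under glass.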

wild oat = test: Test B postemergence herbicide test; type: in vivo, Avena fatua; settings: postemergence, visual rating, scale 0 (no effect) to 100 (complete control)
How it was run: as §4

rice [12] = test: Test B flooded paddy test; type: in vivo, Oryza sativa; settings: 1000 g ai/ha, visual rating, scale 0 to 100 (0 no effect, 100 complete control), 13 to 15 days
How it was run: as §3

[13] = system: small flower umbrella sedge; test: Test B flooded paddy test; type: in vivo, Cyperus difformis; settings: 1000 g ai/ha, visual rating, scale 0 to 100 (0 no effect, 100 complete control), 13 to 15 days
How it was run: as §3

ducksalad = test: Test B flooded paddy test; type: in vivo, Heteranthera limosa; settings: 1000 g ai/ha, visual rating, scale 0 to 100 (0 no effect, 100 complete control), 13 to 15 days
How it was run: as §3

barnyardgrass [14] = test: Test B flooded paddy test; type: in vivo, Echinochloa crus-galli; settings: 1000 g ai/ha, visual rating, scale 0 to 100 (0 no effect, 100 complete control), 13 to 15 days
How it was run: as §3

[15] = Postemergence, 500 g ai/ha, 0 to 100 scale, 0 no effect, 100 complete control
[16] = Postemergence, 2000 g ai/ha, 0 to 100 scale, 0 no effect, 100 complete control
[17] = Preemergence, 2000 g ai/ha, visual rating, 0 to 100 scale (0 no effect, 100 complete control)
[18] = preemergence, 500 g ai/ha, visual injury, 0 to 100 scale (0 no effect, 100 complete control)
[19] = 125 g ai/ha, 0 = no effect, 100 = complete control, preemergence
[20] = 500 g ai/ha, visual rating 0-100, 0 no effect, 100 complete control, preemergence

Cc1nc(C(C)(C)C)sc1C(=O)Nc1cccc(C(=O)NCC(F)(F)F)c1 [Compound 201]
35: Crabgrass, Large plant response rating (large crabgrass [2]; [18]) | Velvetleaf plant response rating (velvetleaf [5]; [17])
60: Plant response rating, Crabgrass, Large (large crabgrass [7]; [20])
5: Morningglory plant response rating (morningglory [4]; [17])
55: Plant response rating, Pigweed (redroot pigweed; [16])
0: Barnyardgrass plant response rating (barnyardgrass [1]; [18]) | Foxtail, Giant plant response rating (giant foxtail [3]; [15]) | Foxtail, Giant plant response rating (giant foxtail [3]; [18]) | Morningglory plant response rating (morningglory [4]; [18]) | Velvetleaf plant response rating (velvetleaf [5]; [18]) | Barnyardgrass plant response rating (0 to 100 scale) (barnyardgrass [6]; [19]) | Barnyardgrass plant response rating (barnyardgrass [6]; 125 g ai/ha) | Barnyardgrass plant response rating (barnyardgrass [6]; 500 g ai/ha) | Surinam Grass plant response rating (0 to 100 scale) (Surinam grass; [19]) | Plant response rating, Surinam Grass (Surinam grass; [20]) | Surinam Grass plant response rating (Surinam grass; 125 g ai/ha) | Cocklebur plant response rating (0 to 100 scale) (cocklebur; [19]) | Plant response rating, Cocklebur (cocklebur; [20]) | Corn plant response rating (0 to 100 scale) (corn; [19]) | Plant response rating, Corn (corn; [20]) | Crabgrass, Large plant response rating (0 to 100 scale) (large crabgrass [7]; [19]) | Crabgrass, Large plant response rating (large crabgrass [7]; 125 g ai/ha) | Foxtail, Giant plant response rating (0 to 100 scale) (giant foxtail [8]; [19]) | Plant response rating, Foxtail, Giant (giant foxtail [8]; [20]) | Foxtail, Giant plant response rating (giant foxtail [8]; 125 g ai/ha) | Foxtail, Giant plant response rating (giant foxtail [8]; 500 g ai/ha) | Lambsquarters plant response rating (0 to 100 scale) (lambsquarters; [19]) | Morningglory plant response rating (0 to 100 scale) (morningglory [9]; [19]) | Morningglory plant response rating (morningglory [9]; 125 g ai/ha) | Pigweed plant response rating (0 to 100 scale) (pigweed; [19]) | Rice plant response rating (0 to 100 scale) (rice [10]; 125 g ai/ha, 0 = no effect, 100 = complete control) | Plant response rating, Rice (rice [10]; 500 g ai/ha, visual rating 0-100, 0 no effect, 100 complete control) | Velvetleaf plant response rating (0 to 100 scale) (velvetleaf [11]; [19]) | Velvetleaf plant response rating (velvetleaf [11]; 125 g ai/ha) | Velvetleaf plant response rating (velvetleaf [11]; 500 g ai/ha) | Blackgrass plant response rating (blackgrass; 125 g ai/ha) | Blackgrass plant response rating (blackgrass; 500 g ai/ha) | Wheat plant response rating (wheat; 125 g ai/ha) | Wheat plant response rating (wheat; 500 g ai/ha) | Rice plant response rating (rice [12]) | Sedge, Umbrella plant response rating [13] | Ducksalad plant response rating (ducksalad) | Barnyardgrass plant response rating (barnyardgrass [14])
30: Plant response rating, Morningglory (morningglory [4]; [16]) | Plant response rating, Lambsquarters (lambsquarters; [20]) | Morningglory plant response rating (morningglory [9]; 500 g ai/ha)
50: Barnyardgrass plant response rating (barnyardgrass [1]; [17])
95: Pigweed plant response rating (redroot pigweed; [17])
40: Pigweed plant response rating (redroot pigweed; [15]) | Pigweed plant response rating (redroot pigweed; [18]) | Lambsquarters plant response rating (lambsquarters; 125 g ai/ha) | Lambsquarters plant response rating (lambsquarters; 500 g ai/ha) | Pigweed plant response rating (pigweed; 500 g ai/ha)
20: Plant response rating, Barnyardgrass (barnyardgrass [1]; [16]) | Plant response rating, Crabgrass, Large (large crabgrass [2]; [16]) | Corn plant response rating (corn; 500 g ai/ha) | Plant response rating, Pigweed (pigweed; [20])
25: Morningglory plant response rating (morningglory [4]; [15])
10: Barnyardgrass plant response rating (barnyardgrass [1]; [15]) | Crabgrass, Large plant response rating (large crabgrass [2]; [15]) | Plant response rating, Foxtail, Giant (giant foxtail [3]; [16]) | Velvetleaf plant response rating (velvetleaf [5]; [15]) | Plant response rating, Velvetleaf (velvetleaf [5]; [16]) | Plant response rating, Barnyardgrass (barnyardgrass [6]; [20]) | Surinam Grass plant response rating (Surinam grass; 500 g ai/ha) | Cocklebur plant response rating (cocklebur; 125 g ai/ha) | Cocklebur plant response rating (cocklebur; 500 g ai/ha) | Corn plant response rating (corn; 125 g ai/ha) | Crabgrass, Large plant response rating (large crabgrass [7]; 500 g ai/ha) | Plant response rating, Morningglory (morningglory [9]; [20]) | Pigweed plant response rating (pigweed; 125 g ai/ha) | Plant response rating, Velvetleaf (velvetleaf [11]; [20]) | Oat, Wild plant response rating (wild oat; 125 g ai/ha) | Oat, Wild plant response rating (wild oat; 500 g ai/ha)
70: Crabgrass, Large plant response rating (large crabgrass [2]; [17])
15: Foxtail, Giant plant response rating (giant foxtail [3]; [17])
